In paper PMC12112332, “Characterization of Novel and Known Activators of Cannabinoid Receptor Subtype 2 Reveals Mixed Pharmacology That Differentiates Mycophenolate Mofetil and GW-842,166X from MDA7” (International Journal of Molecular Sciences, 2025):
Like-named read-outs stand apart in the source and are kept apart here.

Assays:
rat CB2 = target: T1, rat CB2 (Rattus norvegicus, UniProt Q9QZN9); assay: [3H]CP55,940 radioligand competition binding, membranes of HEK/GIRK cells expressing rat CB2; parameters: expressed in transfected cells; host or cells: HEK293 cells stably co-expressing GIRK1/2 channels; conditions: for rCB2 Binding Affinity pKi ± SEM: 0.5 nM [3H]CP55,940, equilibrium; for rCB2 Binding % Max ± SEM: % of specific [3H]CP55,940 binding
T1 sequence (Q9QZN9 1-360): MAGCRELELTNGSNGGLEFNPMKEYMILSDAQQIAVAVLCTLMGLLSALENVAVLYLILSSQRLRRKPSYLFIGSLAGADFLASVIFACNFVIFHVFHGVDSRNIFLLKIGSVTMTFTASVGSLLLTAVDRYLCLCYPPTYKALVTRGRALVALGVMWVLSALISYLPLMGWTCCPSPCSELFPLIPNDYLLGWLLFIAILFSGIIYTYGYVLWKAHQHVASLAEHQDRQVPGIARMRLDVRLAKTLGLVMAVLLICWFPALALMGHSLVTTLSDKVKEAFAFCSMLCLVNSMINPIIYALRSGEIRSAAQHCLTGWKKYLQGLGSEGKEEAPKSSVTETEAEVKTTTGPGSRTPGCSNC
Excerpt: Agonists that bind to the receptor at the site occupied by the endogenous ligand (2-AG in this case) are considered orthosteric agonists. It is also possible for an agonist to bind and activate a receptor via a site other than the orthosteric site; these ligands are classified as allosteric agonists. To characterize the nature of the agonist activity of mycophenolate mofetil, we tested its ability to bind to the receptor in equilibrium binding assays using membranes harvested from cells expressing rCB2 using the radioligand [^3H]CP55,940 [40, 60]. CP55,940 has an affinity for both CB1 and CB2 receptors in the low nM range and is reported to bind to the site occupied by 2-AG [61].
Competition binding concentration–response curves were obtained in the presence of 0.5 nM [^3H]CP55,940 using membranes harvested from HEK/GIRK cells expressing rCB2. Data represent the mean ± SEM of three independent experiments run in triplicate. Data are plotted as a percentage of specific [^3H]CP55,940 binding. Non-specific binding was determined in the presence of 10 µM CP55,940.
Membranes were made from HEK/GIRK cells stably expressing rat CB2. Radioligand competition binding assays were performed as previously described, with minor modifications. In brief, compounds were serially diluted into assay buffer with 0.1% bovine serum albumin (BSA) and added to each well of a 96-well plate, along with 20 μg/well cell membrane and approximately 500 pM [^3H]-CP55,940 (specific activity = 104 Ci/mmol, PerkinElmer, Waltham, MA, USA). Following a 3-h incubation period on a shaker at room temperature, membrane-bound ligand was separated from free ligand by filtration through glass fiber 96-well filter plates (Unifilter-96, GF/B; PerkinElmer, Waltham, MA, USA). Forty microliters of scintillation fluid were added to each well, and membrane-bound radioactivity was determined by scintillation counting (Microbeta2; Revvity, Waltham, MA, USA). Nonspecific binding was determined using 10 μM of cold CP55,940.

rCB1 = target: T2, rCB1 (Rattus norvegicus, UniProt P20272); assay: Thallium flux assay in HEK/GIRK cells expressing rCB1; format: cell-based; conditions: for rCB1 GIRK (−) 2-AG % Max ± SEM / rCB1 GIRK (+) 2-AG % Max ± SEM: % of maximal 2-AG response
T2 construct: expressed in transfected cells; host or cells: HEK293 cells stably co-expressing GIRK channels
Experimental: The cell lines used in this manuscript were generated in-house. Their preparation is described in detail in Qi et al.. Cells were used for 10 passages for experiments and day-to-day signals in both the CB2 and CB1 lines were stable across this passage number. Human Embryonic Kidney (HEK) 293 cells stably expressing rCB2 and the G protein Gqi9 were maintained in Dulbecco’s modified Eagle media (DMEM) containing 10% FBS, 1× antibiotic/antimycotic, 20 mM HEPES, 1 mM sodium pyruvate, 2 mM L-glutamine, 1× non-essential amino acids, 700 µg/mL G418 sulfate, and 0.6 µg/mL puromycin. HEK cells stably expressing rCB2 or rCB1 and the G protein inwardly rectifying potassium channel (GIRK) were maintained in DMEM/F12 containing 10% FBS, 1× antibiotic/antimycotic, 20 mM HEPES, 1 mM sodium pyruvate, 2 mM L-glutamine, 1× non-essential amino acids, 700 µg/mL G418 sulfate, and 0.6 µg/mL puromycin. Cells were monitored by periodic PCR detection using the LookOut Mycoplasma PCR Detection Kit (Sigma-Aldrich, St Louis, MO, USA) to eliminate potential mycoplasma infection. Reagents were obtained from Invitrogen (Waltham, MA, USA) unless otherwise noted.
Thallium flux assays were performed as previously described in Niswender et al., 2008 [31]. HEK/GIRK cells stably expressing rCB1 or rCB2 (15,000 cells/20 µL/well) were seeded in 384-well, poly-D-lysine coated assay plates (Corning BioCoat®) (Corning Inc., Corning, NY, USA) and incubated overnight at 37 °C in the presence of 5% CO2. The next day, the medium was removed and replaced with 20 μL of 1.2 µM thallium-sensitive dye Thallos-AM (ION biosciences, San Marcos, TX, USA), prepared as a DMSO stock solution mixed in a 1:1 ratio with 10% (w/v) pluronic acid F-127, and diluted in assay buffer (Hank’s balanced salt solution, 20 mM HEPES, pH 7.4). Following 1 h at room temperature, the dye solution was removed and replaced with 20 µL assay buffer. For screening of the FDA-Approved Drug Collection, 10 mM DMSO stocks of library compounds were transferred to daughter plates using an Echo acoustic plate reformatter (Labcyte, Sunnyvale, CA, USA) and diluted in assay buffer to a 2× final concentration. For concentration–response curve experiments, compounds were serially diluted 1:3 into 10-point concentration–response curves in DMSO, transferred to daughter plates using the Echo or Bravo Automated Liquid Handling Platform (Agilent Technologies, Santa Clara, CA, USA), and diluted in assay buffer to a 2× final concentration. Thallium flux was measured using the Hamamatsu FDSS/μCELL Kinetic Plate Imager (Bridgewater, NJ, USA). After the establishment of a fluorescence baseline (excitation, 480 ± 20 nm; emission, 540 ± 30 nm), 20 µL (2×) of test compound was added to the cells at 1 s and the response was measured. After 140 s, 10 µL (5×) of an EC20 concentration of agonist (PAM mode) or vehicle (AGO mode) in thallium stimulus buffer (125 mM NaHCO3, 1.8 mM CaSO4, 1 mM MgSO4, 5 mM glucose, 12 mM Tl2SO4, 10 mM HEPES, 0.5% BSA, pH 7.4) was added to the cells, and the response of the cells was measured for an additional 159 s (data were acquired for 300 s total at 0.5 Hz for 140 s and 1 Hz for 160 s). Raw kinetic data were analyzed in a multi-step process: (1) Fluorescence readings for each time point in a well were divided by the fluorescence reading at the initial time point to account for differences in cell number, non-uniform illumination, and dye-loading. (2) The slope value for each kinetic trace was calculated for the time window of 145–155 s, a window occurring directly after the second addition. (3) The average slope was calculated for wells containing vehicle and this value was subtracted from all wells. (4) The vehicle-subtracted slope was normalized to the relevant maximal agonist signal for each assay. […]

T2 sequence (P20272 whole entry): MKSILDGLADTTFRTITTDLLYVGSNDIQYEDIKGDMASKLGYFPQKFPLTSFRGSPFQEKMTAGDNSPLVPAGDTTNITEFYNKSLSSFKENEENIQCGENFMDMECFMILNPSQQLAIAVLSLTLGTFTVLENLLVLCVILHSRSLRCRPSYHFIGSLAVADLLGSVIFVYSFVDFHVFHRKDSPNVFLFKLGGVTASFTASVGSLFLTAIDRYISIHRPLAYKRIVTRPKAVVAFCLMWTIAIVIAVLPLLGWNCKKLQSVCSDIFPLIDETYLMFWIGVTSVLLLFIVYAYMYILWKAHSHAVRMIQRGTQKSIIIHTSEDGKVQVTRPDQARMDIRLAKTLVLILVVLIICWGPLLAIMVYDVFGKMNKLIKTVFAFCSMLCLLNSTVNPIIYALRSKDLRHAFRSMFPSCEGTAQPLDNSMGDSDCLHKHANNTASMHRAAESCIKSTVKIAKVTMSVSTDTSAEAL

For O=C(NCC1CCOCC1)c1cnc(Nc2ccc(Cl)cc2Cl)nc1C(F)(F)F [GW-842,166X, 2-(2,4-dichloroanilino)-N-(oxan-4-ylmethyl)-4-(trifluoromethyl)pyrimidine-5-carboxamide], the EC50 (rat CB2) was greater than 10 µM, the “rCB2 Binding Affinity pKi ± SEM” value (rat CB2) was “Incomplete” and the “rCB2 Binding % Max ± SEM” value (rat CB2; 0.5 nM [3H]CP55,940) was 22 ± 2%. For the same compound, the “rCB1 GIRK (−) 2-AG pEC50 ± SEM” value (rCB1; absence of 2-AG) was “Inactive” and the “rCB1 GIRK (+) 2-AG pEC50 ± SEM” value (rCB1; presence of EC20 2-AG) was “Inactive”.

CC1(Cc2ccccc2)COc2cc(C(=O)N3CCCCC3)ccc21 (centres unmarked) [MDA7, 1-[(3-benzyl-3-methyl-2,3-dihydro-1-benzofuran-6-yl)carbonyl]piperidine] was tested, and the Ki (rat CB2) was 0.251 µM, the “rCB2 Binding % Max ± SEM” value (rat CB2; 0.5 nM [3H]CP55,940) was 5.3 ± 1.7% and the “rCB1 GIRK (−) 2-AG % Max ± SEM” value (rCB1; absence of 2-AG) was 50 ± 2%. For the same compound, the “rCB1 GIRK (+) 2-AG % Max ± SEM” value (rCB1; presence of EC20 2-AG) was 48 ± 2%, the EC50 (rCB1; rCB1 GIRK EC50 in absence of 2-AG, absence of 2-AG) was 0.477 µM and the EC50 (rCB1; rCB1 GIRK EC50 in presence of 2-AG, presence of EC20 2-AG) was 0.395 µM.

COc1c(C)c2c(c(O)c1C/C=C(\C)CCC(=O)OCCN1CCOCC1)C(=O)OC2 [Mycophenolate mofetil] was tested, and the “rCB2 Binding Affinity pKi ± SEM” value (rat CB2) was “Incomplete”, the “rCB2 Binding % Max ± SEM” value (rat CB2; 0.5 nM [3H]CP55,940) was 20 ± 1% and the EC50 (rat CB2; 0.5 nM [3H]CP55,940, tested up to 30 µM, read-out: rCB2 Binding pEC50 (incomplete displacement) (converted)) was greater than 10 µM. For the same compound, the “rCB1 GIRK (−) 2-AG pEC50 ± SEM” value (rCB1; absence of 2-AG) was less than 5.0, the “rCB1 GIRK (−) 2-AG % Max ± SEM” value (rCB1; absence of 2-AG) was −15 ± 3% and the “rCB1 GIRK (+) 2-AG pEC50 ± SEM” value (rCB1; presence of EC20 2-AG) was less than 5.0. The “rCB1 GIRK (+) 2-AG % Max ± SEM” value (rCB1; presence of EC20 2-AG) was −5.5 ± 1.1% and the EC50 (rCB1; presence of EC20 2-AG, read-out: rCB1 GIRK (+) 2-AG pEC50 ± SEM (converted)) was greater than 10 µM.

In the case of COc1c(C)c2c(c(O)c1C/C=C(\C)CCC(=O)O)C(=O)OC2 [Mycophenolic acid], the “rCB1 GIRK (+) 2-AG pEC50 ± SEM” value (rCB1; presence of EC20 2-AG) is reported as “Inactive”.
